Assay results taken from ChEMBL document CHEMBL1201862, “PubChem BioAssay data set” (2004).
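Values below derive from 48-hour exposures of cells grown in 96-well plates, with endpoints linearly interpolated between the two concentrations bracketing the appropriate inhibition level. At the GI50, growth is halved.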 Active and inactive are the calls of the source. No stated cut-off is given here; in the data, active = GI50 up to about 1.1 µM and inactive = higher.

What was measured:
Experiment in all cases: DTP human tumour cell line panel, 48 h
UACC-62 = tested on: UACC-62
786-0 = tested on: 786-0
SK-MEL-5 = tested on: SK-MEL-5
SF-268 = tested on: SF-268
A549 = tested on: A549
SK-OV-3 = tested on: SK-OV-3
HT-29 = tested on: HT-29
UACC-257 = tested on: UACC-257
SN12C = tested on: SN12C
NCI-H226 = tested on: NCI-H226
NCI-H460 = tested on: NCI-H460
M14 = tested on: M14
HCC 2998 = tested on: HCC 2998
OVCAR-5 = tested on: OVCAR-5
CAKI-1 = tested on: CAKI-1
HOP-92 = tested on: HOP-92
RPMI-8226 = tested on: RPMI-8226

Measured: GI50

O=C(NN1C(=O)C(Cl)C1c1cccc(Cl)c1)c1ccccc1O (stereo unspecified)
inactive: UACC-62 > 100 µM | 786-0 > 100 µM | SK-MEL-5 > 100 µM | SF-268 > 100 µM | A549 > 100 µM | SK-OV-3 > 100 µM | HT-29 > 100 µM | UACC-257 > 100 µM | SN12C > 100 µM | NCI-H226 > 100 µM | NCI-H460 > 100 µM | M14 > 100 µM

C=C(C)C1CC=C(C)CC1 (stereo unspecified)
inactive: HCC 2998 973 µM | UACC-62 838 µM | 786-0 923 µM | SK-MEL-5 849 µM | SF-268 944 µM | A549 968 µM | OVCAR-5 968 µM | SK-OV-3 1140 µM | HT-29 923 µM | CAKI-1 935 µM | UACC-257 927 µM | HOP-92 841 µM | SN12C 893 µM | RPMI-8226 > 100 µM | NCI-H226 830 µM | NCI-H460 968 µM | M14 893 µM

COc1ccc(C2NC(c3ccc(OC)cc3)C(C)C(=O)C2C)cc1 (stereo unspecified)
inactive: HCC 2998 > 100 µM | UACC-62 > 100 µM | 786-0 > 100 µM | SF-268 > 100 µM | OVCAR-5 23.4 µM | SK-OV-3 > 100 µM | HT-29 > 100 µM | UACC-257 > 100 µM | HOP-92 > 100 µM | SN12C > 100 µM | RPMI-8226 34.2 µM | NCI-H460 > 100 µM | M14 > 100 µM

CS(=O)(=O)NNS(=O)(=O)c1ccc(F)cc1
inactive: HCC 2998 > 100 µM | UACC-62 > 100 µM | 786-0 > 100 µM | SK-MEL-5 > 100 µM | SF-268 > 100 µM | A549 > 100 µM | HT-29 > 100 µM | CAKI-1 > 100 µM | UACC-257 > 100 µM | SN12C > 100 µM | RPMI-8226 > 100 µM | NCI-H226 > 100 µM | NCI-H460 > 100 µM | M14 > 100 µM

CCN(CC)CCC1(C2CCCCC2)CCC(=O)NC1=O (stereo unspecified)
inactive: HCC 2998 > 100 µM | UACC-62 > 100 µM | 786-0 > 100 µM | SK-MEL-5 > 100 µM | SF-268 > 100 µM | A549 > 100 µM | OVCAR-5 > 100 µM | SK-OV-3 > 100 µM | HT-29 > 100 µM | CAKI-1 > 100 µM | UACC-257 > 100 µM | SN12C > 100 µM | RPMI-8226 > 100 µM | NCI-H226 > 100 µM | NCI-H460 > 100 µM | M14 > 100 µM

COc1ccc2c(c1)[n+]([O-])c(-c1ccc(Cl)c(Cl)c1)c(N)[n+]2[O-]
inactive: 786-0 36.7 µM | SK-MEL-5 16.5 µM | SF-268 37.1 µM | A549 30.3 µM | OVCAR-5 36.8 µM | SK-OV-3 55.1 µM | HT-29 37.5 µM | CAKI-1 37.9 µM | UACC-257 16.4 µM | HOP-92 > 100 µM | SN12C 46.1 µM | RPMI-8226 31.3 µM | NCI-H226 45.1 µM | NCI-H460 25.1 µM | M14 25.7 µM

N=C(N)NS(=O)(=O)c1ccc(NC(=O)c2cccc3c(N)c4ccccc4nc23)cc1
inactive: HCC 2998 > 100 µM | UACC-62 > 100 µM | 786-0 > 100 µM | SK-MEL-5 > 100 µM | SF-268 > 100 µM | A549 > 100 µM | OVCAR-5 > 100 µM | SK-OV-3 > 100 µM | CAKI-1 > 100 µM | UACC-257 > 100 µM | SN12C > 100 µM | RPMI-8226 > 100 µM | NCI-H226 > 100 µM | NCI-H460 > 100 µM | M14 > 100 µM

CCOc1cc2c(C(=O)CC)c(O)ccc2o1
inactive: HCC 2998 > 100 µM | UACC-62 > 37.6 µM | 786-0 > 100 µM | SK-MEL-5 > 39.3 µM | SF-268 > 100 µM | A549 > 100 µM | OVCAR-5 > 100 µM | SK-OV-3 > 48.1 µM | HT-29 39 µM | CAKI-1 > 100 µM | UACC-257 > 100 µM | HOP-92 > 100 µM | SN12C > 100 µM | RPMI-8226 > 58.1 µM | NCI-H226 > 100 µM | NCI-H460 > 100 µM | M14 > 55 µM

CCCCCCCCCCCCCS(=O)(=O)NCC(N)=O
inactive: HCC 2998 > 100 µM | UACC-62 > 100 µM | 786-0 > 100 µM | SK-MEL-5 > 100 µM | SF-268 > 100 µM | A549 > 100 µM | OVCAR-5 > 100 µM | SK-OV-3 > 100 µM | HT-29 > 100 µM | UACC-257 > 100 µM | HOP-92 > 100 µM | SN12C > 100 µM | NCI-H226 > 100 µM | NCI-H460 > 100 µM | M14 > 100 µM

CCCC(C(=O)OC)C1N/C(=N/C#N)N(Cc2ccccc2)C1=O (stereo unspecified)
inactive: HCC 2998 > 100 µM | UACC-62 > 100 µM | 786-0 > 100 µM | SK-MEL-5 > 100 µM | SF-268 > 100 µM | A549 > 100 µM | OVCAR-5 > 100 µM | SK-OV-3 > 100 µM | HT-29 > 100 µM | CAKI-1 > 100 µM | UACC-257 > 100 µM | SN12C > 100 µM | RPMI-8226 > 100 µM | NCI-H460 > 100 µM | M14 > 100 µM

CCSc1nc2n(c(=S)n1)CCN2C
inactive: HCC 2998 16.3 µM | UACC-62 12.1 µM | 786-0 18.5 µM | SK-MEL-5 15.2 µM | SF-268 27.9 µM | A549 24.5 µM | OVCAR-5 21.4 µM | SK-OV-3 21 µM | HT-29 17.4 µM | CAKI-1 13.5 µM | UACC-257 12.1 µM | SN12C 19.6 µM | RPMI-8226 22 µM | NCI-H226 18.6 µM | NCI-H460 21.1 µM | M14 15.8 µM

COc1ccccc1N1C(=O)C2c3[nH]c4ccccc4c3C3CCC(C(C)(C)C)CC3C2C1=O (stereo unspecified)
inactive: HCC 2998 > 100 µM | UACC-62 > 100 µM | 786-0 > 100 µM | SK-MEL-5 > 100 µM | SF-268 > 100 µM | A549 > 100 µM | SK-OV-3 > 100 µM | HT-29 > 100 µM | UACC-257 > 100 µM | HOP-92 > 100 µM | SN12C > 100 µM | RPMI-8226 > 100 µM | NCI-H226 > 100 µM | M14 > 100 µM

Oc1cc(O)c(Oc2cccc(O)c2O)c(O)c1
inactive: HCC 2998 > 100 µM | UACC-62 35.6 µM | 786-0 42.6 µM | SK-MEL-5 18.6 µM | SF-268 > 100 µM | A549 > 100 µM | OVCAR-5 > 100 µM | SK-OV-3 > 100 µM | HT-29 > 100 µM | CAKI-1 > 100 µM | UACC-257 > 100 µM | HOP-92 > 100 µM | SN12C > 100 µM | RPMI-8226 > 100 µM | NCI-H460 > 100 µM | M14 > 100 µM

O=C1NC(=O)/C(=N\c2cccc3c(=O)[nH][nH]c(=O)c23)C(c2nc3ccccc3s2)C1=O (stereo unspecified)
inactive: HCC 2998 89.7 µM | UACC-62 > 100 µM | 786-0 > 100 µM | SK-MEL-5 > 100 µM | SF-268 > 100 µM | A549 > 100 µM | SK-OV-3 > 100 µM | HT-29 > 100 µM | CAKI-1 > 100 µM | UACC-257 > 100 µM | HOP-92 > 100 µM | SN12C > 100 µM | NCI-H226 > 100 µM | NCI-H460 > 100 µM | M14 > 100 µM

O=C(CC(=O)N1N=C(n2ccc3ccccc32)CC1c1ccccc1)Nc1cccc(Cl)c1 (stereo unspecified)
inactive: HCC 2998 > 100 µM | UACC-62 > 100 µM | 786-0 > 100 µM | SF-268 > 100 µM | A549 > 100 µM | OVCAR-5 > 100 µM | SK-OV-3 > 100 µM | HT-29 > 100 µM | UACC-257 > 100 µM | HOP-92 16 µM | SN12C > 100 µM | RPMI-8226 > 100 µM | NCI-H460 > 100 µM | M14 > 100 µM

COc1ccc(OC)c(NC(=O)C2=C(C)NC(C)=C(C(=O)Nc3cc(OC)ccc3OC)C2c2ccccc2)c1
inactive: HCC 2998 > 100 µM | UACC-62 > 100 µM | 786-0 > 100 µM | SK-MEL-5 51.3 µM | SF-268 63.7 µM | A549 85.1 µM | OVCAR-5 > 100 µM | SK-OV-3 > 100 µM | HT-29 > 100 µM | CAKI-1 > 100 µM | UACC-257 > 100 µM | HOP-92 6.41 µM | SN12C > 100 µM | RPMI-8226 4.91 µM | NCI-H460 > 100 µM | M14 > 100 µM

O=c1[nH]cc(COCCO)c(=O)[nH]1
inactive: UACC-62 > 100 µM | 786-0 > 100 µM | SK-MEL-5 > 100 µM | SF-268 > 100 µM | A549 > 100 µM | OVCAR-5 > 100 µM | SK-OV-3 > 100 µM | HT-29 > 100 µM | CAKI-1 > 100 µM | UACC-257 > 100 µM | HOP-92 > 100 µM | SN12C > 100 µM | RPMI-8226 > 100 µM | NCI-H226 > 100 µM | NCI-H460 > 100 µM | M14 > 100 µM

Cc1c2ccncc2c(C)c2c1[nH]c1ccc(OCC(F)(F)F)cc12
inactive: 786-0 1.47 µM | SK-MEL-5 1.91 µM | SF-268 1.55 µM | A549 1.79 µM | OVCAR-5 1.53 µM | SK-OV-3 1.82 µM | HT-29 1.53 µM | CAKI-1 2.11 µM | UACC-257 1.89 µM | HOP-92 2.23 µM | SN12C 1.37 µM | RPMI-8226 2.27 µM | NCI-H226 1.83 µM | NCI-H460 1.18 µM | M14 1.96 µM
